Entries after “also recorded” stand apart in the source; their conditions may differ.
What was measured:
[1] = test system: AI-2 mediated luciferase expression in V. harveyi; test: V. harveyi bioassay, tester and control strains, bioluminescence intensity; assay type: cell-based, Vibrio harveyi
Protocol: The results are normalized to cell count and control strain.
The inhibition of an AI-2 mediated response was further measured in the V. harveyi bioassay. Compound QXP031 was tested against V. harveyi tester and control strains. […] The results are normalized to cell count and any minimal effects seen in the control strain. The fold difference in bioluminescence intensity at the different drug concentrations versus no drug control is indicated above the appropriate bars in FIG. 21.

[2] = test system: CAMP expression by S. pyogenes 19615; test: CAMP assay (S. aureus 25923 streak, S. pyogenes 19615 streaks, sheep blood agar); assay type: cell-based, Streptococcus pyogenes
Protocol: The horizontal streak is S. aureus 25923 and the vertical streaks are S. pyogenes 19615. Filter disks containing either DMSO no drug control or compound QXP031 were applied to plates and incubated anaerobically overnight at 37° C.
Many streptococci produce a diffusible extracellular protein (CAMP) that acts synergistically with staphylococcal beta lysin to lyse erythrocytes on trypticase soy agar plates containing sheep blood. Hemolysis of erythrocytes is an important component of the virulence response in many pathogenic bacteria. A single straight streak of a beta lysin producing S. aureus strain is made. Steptococci to be tested are streaked perpendicular to the S. aureus streak.

[3] = test system: S. pyogenes 19615 proteolytic activity; test: Skim milk plate proteinase assay; assay type: cell-based, Streptococcus pyogenes; conditions: filter disk, anaerobic overnight 37° C.
Protocol: Skim milk containing plates were overlaid with top agar containing S. pyogenes 19615. Filter disks containing either DMSO no compound control or compound QXP031 were applied to plates and incubated anaerobically overnight at 37° C.
Proteinase activity is an important component of the virulence response in many pathogenic bacteria. Skim milk containing agar plates can be used to score for proteinase activity in a variety of bacteria. Proteolytic activity is scored as a clearing zone surrounding a test inoculum. The clearing zone is the result of the proteolytic breakdown of the milk proteins suspended in the agar plates. Regions where milk protein is not broken retain a milky opaque appearance.

[4] = test system: V. harveyi strains MM32, BB120, BB170; test: Microtiter crystal violet biofilm formation assay; assay type: cell-based, Vibrio harveyi
Protocol: (§1) Biofilm formation was measured using a microtiter-based assay. Free-swimming (planktonic) bacteria were cultured in AB or LB media supplemented with glucose in 96 well microtiter dishes. Biofilms typically formed along the walls of the wells at the interface of the liquid and air phase. At the end of the incubation, aliquots of a crystal violet solution (stock 0.1%) were added to the wells to stain both the adherent and the non-adherent cells. The wells were then washed with deionized water to remove non-adherent cells, and the bound crystal violet solubilized with 200 microliters of water. Absorbance reading at 600 nm (A600) were used to quantitate the amount of crystal violet dye that had adhered to the biofilms. When indicated, synthetic AI-2 was added to the wells at the beginning of the cultures.
Various amounts of synthetic AI-2 were added to the initial free-swimming bacterial cultures in LB media supplemented with glucose, and biofilm formation measured at the end of the incubation.

[5] = test system: Pseudomonas aeruginosa (ATCC 27853); test: Microtiter crystal violet biofilm formation assay; assay type: cell-based; conditions: AB media with glucose; pH-dependent
Protocol: as §1
The effects of AI-2 on biofilm formation were also evaluated in Pseudomonas aeruginosa (ATCC 27853)(FIG. 27). Biofilm formation by this organism is of particular interest because of the association of Pseudomonas aeruginosa biofilms with decreased lung capacity in subjects with cystic fibrosis.

[6] = test system: MM32 indicator strain (LuxS−, LuxN−) of V. harveyi; test: MM32 bioluminescence assay; assay type: cell-based, Vibrio harveyi; conditions: various doses, 6-hour incubation
Protocol: The MM32 indicator strain (LuxS−, LuxN−) of V. harveyi was incubated with various doses of AI-2 and the bioluminescence signal measured at various time points during a 6-hour incubation.
Exogenous synthetic autoinducer-2 was added at the outset of the assay at a final concentration of 25 μg/ml. QXP-048 was added at the outset of the assay at a final concentration of 25 μg/ml. […] Exogeneous synthetic autoinducer-2 was added at the outset of the assay to a final concentration of 25 μg/ml. QXP-048 was added at the outset of the assay at a final concentration of 25 μg/ml.
The invention provides a luxN− and luxS− strain of V. harveyi, designated MM32, for identifying inhibitors of the quorum-sensing pathway. […] Further, since MM32 cannot produce AI-2, addition of exogenous AI-2 or its analogs allows rapid identification of inhibitors of AI-2.

[7] = Characterization of AI-2 activity: acid, base and heat stability; assay type: physicochemical
[8] = test system: SdiA; test: Effect of autoinducer on SdiA regulated gene expression (rck::MudJ fusion, β-galactosidase); assay type: cell-based; conditions: AI-2 from E. coli or S. typhimurium, 0.4 M NaCl osmotic shock fluids at 10% (v/v)
Description: It was possible that the AI-2 autoinducer that we have been characterizing in S. typhimurium and E. coli acted through SdiA. […] In E. coli, we assayed an ftsQ1p2p-lacZ reporter, and in S. typhimurium we assayed an rck::MudJ fusion in both an sdiA^+ and sdiA^− background. We tested the effects of addition of LB, 0.4 M NaCl, 0.4 M NaCl osmotic shock fluids containing AI-2 activity from S. typhimurium LT2, E. coli O157, and 0.4 M NaCl osmotic shock fluid from E. coli DH5α.
For ftsQ regulation in E. coli, the plasmids pMS207 and pMS209 were transformed into E. coli strain MC4100 (Silhavy et al., 1984, supra), and the transformants were grown overnight in LB containing 100 mg/L ampicillin at 30° C. with aeration. For rck regulation, S. typhimurium strains BA1105 (rck::MudJ) and BA1305 (rck::MudJ sdiA) were grown overnight in LB containing 100 mg/L kanamycin at 30° C. with aeration. The overnight cultures were diluted 20-fold into fresh medium and grown for an additional 4.5 h. At this time, each culture was divided into five identical aliquots and 10% (v/v) of one of the following was added to each aliquot: LB, 0.4M NaCl, 0.4M osmotic shock fluids from S. typhimurium LT2, E. coli O157 or E. coli strain DH5α (negative control). The osmotic shock fluids were prepared as described above, following pre-growth of the S. typhimurium LT2 and E. coli in LB containing 0.5% glucose for 6 h. […]

CC(=O)O[C@H]1C=CC(=O)C1 [QXP031, (R)-4-acetoxy-cyclopent-2-eneone]
effect on AI-2 mediated luciferase expression ([1]; at the concentrations indicated in FIG. 21): specifically inhibited | specific decrease in bioluminescence as a result of AI-2 inhibition ([1]; various concentrations, normalized to cell count and control strain): up to 15000 fold | CAMP score [2]: negative CAMP score | hemolysis in CAMP assay ([2]; filter disk, anaerobic overnight 37° C.): complete inhibition of hemolysis | proteolysis of milk protein [3]: inhibition of S. pyogenes proteolytic activity; also recorded: proteolysis was inhibited

CC1=C(O)C(=O)CO1 [AI-2, 4-hydroxy-5-methyl-2h-furan-3-one]
biofilm formation ([4]; MM32 strain, low doses, LB media with glucose): block biofilm formation | biofilm formation ([4]; higher concentrations, all V. harveyi strains tested): stimulated biofilm formation | biofilm formation ([4]; indicator strain BB170, low doses, LB media with glucose): increases the extent of biofilm that forms | biofilm production after addition to the medium ([4]; null mutant (AI-1−/AI-2−) V. harveyi): allows (AI-1−/AI-2−) V. harveyi to produce biofilm | biofilm formation ([4]; wild-type strain BB120, low doses, LB media with glucose): increases the extent of biofilm that forms | biofilm formation [5]: dose-dependent increase in the level of biofilm formation | bioluminescence signal [6]: induction of bioluminescence | stability of activity to acid [7]: acid-stable | stability of activity to base [7]: base-labile | temperature of heating withstood by the activity ([7]; but not 100° C.): about 80 °C | change in β-galactosidase production [8]: No change
